Test results taken from patent publication US12139498B1, “Positive allosteric modulators of the muscarinic acetylcholine receptor M4” (Vanderbilt University, priority 2023, dated 2024).
pIC50: −log10 of the molar value.

Legend:
[1] = target: T1, human muscarinic 2 (Homo sapiens, UniProt P08172); assay: Eurofins LeadProfilingScreen, human muscarinic 2 (binding); conditions: 10 μM (binding)
T1 sequence (P08172 1-466): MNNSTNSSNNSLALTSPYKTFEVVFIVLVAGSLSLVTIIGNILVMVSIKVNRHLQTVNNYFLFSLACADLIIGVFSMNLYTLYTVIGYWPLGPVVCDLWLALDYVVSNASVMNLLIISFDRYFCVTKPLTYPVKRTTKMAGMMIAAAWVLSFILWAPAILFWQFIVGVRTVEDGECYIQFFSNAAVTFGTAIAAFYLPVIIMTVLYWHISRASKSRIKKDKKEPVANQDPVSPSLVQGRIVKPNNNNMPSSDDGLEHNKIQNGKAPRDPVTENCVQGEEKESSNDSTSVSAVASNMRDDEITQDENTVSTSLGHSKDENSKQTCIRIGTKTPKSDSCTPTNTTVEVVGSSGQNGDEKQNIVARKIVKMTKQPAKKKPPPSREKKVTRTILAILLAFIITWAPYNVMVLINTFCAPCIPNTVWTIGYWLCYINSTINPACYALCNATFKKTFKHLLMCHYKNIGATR
Method: Compound 70 was tested using Eurofins LeadProfilingScreen®, which detects potential off-target activity and determines relative selectivity. The screen includes 68 primary molecular targets, including several CNS targets recommended by the EMEA (European Medicines Evaluation Agency) to evaluate drug dependence potential.

[2] = Fraction unbound in dog plasma; format: in vitro ADME; conditions: read-out: Dog Fu (plasma)
Method: (§1) Compound 70 was tested in several in in vitro assays to investigate both metabolism and pharmacokinetics. These assays may be performed according to known methods as generally described in the following references: Conde-Ceide et al. ACS Med. Chem. Lett. 2015, 6, 716-720; Morris et al. J. Med. Chem. 2014, 57, 10192-10197; and Bubser et al. ACS Chem. Neurosci. 2014, 5, 920-942.

[3] = Human intrinsic clearance; format: in vitro ADME
Method: as §1

[4] = target: T2, P450 1A2 (Homo sapiens, UniProt P05177); assay: P450 1A2 inhibition; format: in vitro ADME
T2 sequence (P05177 1-516): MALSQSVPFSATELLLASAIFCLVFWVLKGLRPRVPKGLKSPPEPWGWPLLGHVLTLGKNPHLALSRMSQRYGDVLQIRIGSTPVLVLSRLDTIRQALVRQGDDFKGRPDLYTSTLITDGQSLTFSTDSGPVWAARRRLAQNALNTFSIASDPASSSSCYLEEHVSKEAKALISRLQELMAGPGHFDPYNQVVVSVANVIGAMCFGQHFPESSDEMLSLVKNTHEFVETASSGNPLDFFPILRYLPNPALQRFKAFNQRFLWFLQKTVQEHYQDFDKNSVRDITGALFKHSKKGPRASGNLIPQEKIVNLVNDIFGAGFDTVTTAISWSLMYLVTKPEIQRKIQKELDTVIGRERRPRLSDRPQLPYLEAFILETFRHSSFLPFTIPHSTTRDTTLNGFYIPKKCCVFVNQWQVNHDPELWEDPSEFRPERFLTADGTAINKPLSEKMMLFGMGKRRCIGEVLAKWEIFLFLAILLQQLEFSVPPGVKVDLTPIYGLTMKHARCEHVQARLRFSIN
Method: as §1

Cc1c(N2CCc3nc(C4(F)CC4)sc3C2)nc2nn(C)c(=O)n2c1C [Compound 70, 7-(2-(1-fluorocyclopropyl)-6,7-dihydrothiazolo[5,4-c]pyridin-5(4H)-yl)-2,5,6-trimethyl-[1,2,4]triazolo[4,3-a]pyrimidin-3(2H)-one]
inhibition at 10 µM [1]: 58%
fraction unbound [2]: 0.232
CLint scaled [3]: 9 mL/min/kg
pIC50 [4]: < 4.52
